The text below walks through data of US11458123B2 (Arvinas, Inc., priority 2016, dated 2022).

The structures appear in SMILES notation.

The first test concerns tau protein. As to the kind of experiment: Tau protein in vitro degradation assay (Western blot, Tau-13 antibody). It is filed as cell-based, human. As to conditions: SK-N-SH cells; 72 hours of incubation; tested at 300 nM, 100 nM, 33 nM and 11 nM; Western blot, Tau-13 antibody. On the procedure: Tau Protein In Vitro Degradation Assay
To determine effect of PROTACs on tau protein degradation SK-N-SH cells were seeded in a 24-well tissue culture-treated plate for at least 18-hours prior to compound addition. Tau PROTACs were evaluated for tau degradation by lysing the cells in lysis buffer with protease inhibitors following a 72-hour incubation with tau PROTACs at 1000 nM, 300 nM and 100 nM for Table 1 and 300 nM, 100 nM, 33 nM and 11 nM for Table 2. Cell lysates were run on standard SDS-PAGE gels, and tau levels were detected by Western blotting using Tau-13 antibody from Abcam (Cambridge, UK) that binds to all forms of human tau.
For orientation: In western blotting, separated proteins are transferred to a membrane and probed.
As for `Cn1c2ccncc2c2c(F)c(F)c(-c3ccc(OCCOCCOCCOCCOCCOc4ccc5c(c4)C(=O)N(C4CCC(=O)NC4=O)C5=O)nc3)cc21` (stereo not shown) [Compound 112, 5-((14-((5-(8,9-difluoro-5-methyl-5H-pyrido[4,3-b]indol-7-yl)pyridin-2-yl)oxy)-3,6,9,12-tetraoxatetradecyl)oxy)-2-(2,6-dioxopiperidin-3-yl)isoindoline-1,3-dione], the “Degradation activity* (highest amount of degradation observed at any dosage; tau protein remaining)” value is reported as “A (≤50% tau protein remaining after 72 hours of incubation with the test compound)”.
Same read-out and setting: as for `Cn1c2ccncc2c2ccc(-c3ccc(O[C@H]4C[C@H](Oc5ccc(CCCCCCOc6ccc7c(c6)C(=O)N(C6CCC(=O)NC6=O)C7=O)nc5)C4)nc3)cc21` (stereo partly shown) [Compound 98, 2-(2,6-dioxopiperidin-3-yl)-5-((6-(5-((1r,3r)-3-((5-(5-methyl-5H-pyrido[4,3-b]indol-7-yl)pyridin-2-yl)oxy)cyclobutoxy)pyridin-2-yl)hexyl)oxy)isoindoline-1,3-dione], the entry is “B (≤80% and >50% tau protein remaining after 72 hours of incubation with the test compound)”; as for `Cn1c2ccncc2c2ccc(-c3ccc(OCCCCCOCCCCCO[C@H]4C[C@H](Oc5ccc6c(c5)C(=O)N(C5CCC(=O)NC5=O)C6=O)C4)nc3)cc21` (stereo partly shown) [Compound 85, 2-(2,6-dioxopiperidin-3-yl)-5-((1r,3r)-3-((5-((5-((5-(5-methyl-5H-pyrido[4,3-b]indol-7-yl)pyridin-2-yl)oxy)pentyl)oxy)pentyl)oxy)cyclobutoxy)isoindoline-1,3-dione], “A (≤50% tau protein remaining after 72 hours of incubation with the test compound)”; as for `O=C1CCC(N2C(=O)c3ccc(OCCCCCN4CCN(CCCc5ccc(-c6ccc7c(c6)[nH]c6ccncc67)cn5)CC4)cc3C2=O)C(=O)N1` (stereo not shown) [Compound 54, 5-((5-(4-(3-(5-(5H-pyrido[4,3-b]indol-7-yl)pyridin-2-yl)propyl)piperazin-1-yl)pentyl)oxy)-2-(2,6-dioxopiperidin-3-yl)isoindoline-1,3-dione], “C (>80% tau protein remaining after 72 hours of incubation with the test compound)”.
Turning to `Cn1c2ccncc2c2ccc(-c3ccc(O[C@H]4C[C@H](Oc5ccc(C#CCCCCOc6ccc7c(c6)C(=O)N(C6CCC(=O)NC6=O)C7=O)cc5)C4)nc3)cc21` (stereo partly shown) [Compound 124, 2-(2,6-dioxopiperidin-3-yl)-5-((6-(4-((1r,3r)-3-((5-(5-methyl-5H-pyrido[4,3-b]indol-7-yl)pyridin-2-yl)oxy)cyclobutoxy)phenyl)hex-5-yn-1-yl)oxy)isoindoline-1,3-dione], the “Degradation activity* (highest amount of degradation observed at any dosage; tau protein remaining)” value is on record as “C (>80% tau protein remaining after 72 hours of incubation with the test compound)”.
As to `Cn1c2ccncc2c2ccc(-c3ccc(N4CC(OCCOCCOCCOCCOc5ccc6c(c5)C(=O)N(C5CCC(=O)NC5=O)C6=O)C4)nc3)cc21` (stereo not shown) [Compound 208, 2-(2,6-dioxopiperidin-3-yl)-5-(2-(2-(2-(2-((1-(5-(5-methyl-5H-pyrido[4,3-b]indol-7-yl)pyridin-2-yl)azetidin-3-yl)oxy)ethoxy)ethoxy)ethoxy)ethoxy)isoindoline-1,3-dione], the “Degradation activity (tau protein remaining; highest amount of degradation observed at any dosage)” value is recorded as “A (≤50% tau protein remaining after 72 hours of incubation with the test compound)”.
As to `O=C1CCC(N2C(=O)c3ccc(OCCCCCC(=O)N4CCC(O[C@H]5C[C@H](Oc6ccc(-c7ccc8c(c7)[nH]c7ccncc78)cn6)C5)CC4)cc3C2=O)C(=O)N1` (stereo partly shown) [Compound 164, 5-(6-(4-((1r,3r)-3-(5-(5H-pyrido[4,3-b]indol-7-yl)pyridin-2-yloxy)cyclobutoxy)piperidin-1-yl)-6-oxohexyloxy)-2-(2,6-dioxopiperidin-3-yl)isoindoline-1,3-dione], the “Degradation activity* (highest amount of degradation observed at any dosage; tau protein remaining)” value is reported as “C (>80% tau protein remaining after 72 hours of incubation with the test compound)”.
`Cn1c2ccncc2c2ccc(-c3ccc(CCCOCCOCCOCCOCCOc4ccc5c(c4)C(=O)N(C4CCC(=O)NC4=O)C5=O)nc3)cc21` (stereo not shown) [Compound 74, 2-(2,6-dioxopiperidin-3-yl)-5-((15-(5-(5-methyl-5H-pyrido[4,3-b]indol-7-yl)pyridin-2-yl)-3,6,9,12-tetraoxapentadecyl)oxy)isoindoline-1,3-dione]: the “Degradation activity* (highest amount of degradation observed at any dosage; tau protein remaining)” value was “A (≤50% tau protein remaining after 72 hours of incubation with the test compound)”.
With `Cn1c2ccncc2c2ccc(-c3ccc(O[C@H]4C[C@H](C(=O)N5CC6(CC(OCCCCOc7ccc8c(c7)C(=O)N(C7CCC(=O)NC7=O)C8=O)C6)C5)C4)nc3)cc21` (stereo partly shown) [Compound 157, 2-(2,6-dioxopiperidin-3-yl)-5-(4-((2-((1r,3r)-3-((5-(5-methyl-5H-pyrido[4,3-b]indol-7-yl)pyridin-2-yl)oxy)cyclobutane-1-carbonyl)-2-azaspiro[3.3]heptan-6-yl)oxy)butoxy)isoindoline-1,3-dione], the “Degradation activity* (highest amount of degradation observed at any dosage; tau protein remaining)” value was “C (>80% tau protein remaining after 72 hours of incubation with the test compound)”.
With `O=C1CCC(N2C(=O)c3ccc(OCCCCCN4CCN(CCO[C@H]5C[C@H](Oc6ccc(-c7ccc8c(c7)[nH]c7ccncc78)cn6)C5)CC4)cc3C2=O)C(=O)N1` (stereo partly shown) [Compound 59, 5-((5-(4-(2-((1r,3r)-3-((5-(5H-pyrido[4,3-b]indol-7-yl)pyridin-2-yl)oxy)cyclobutoxy)ethyl)piperazin-1-yl)pentyl)oxy)-2-(2,6-dioxopiperidin-3-yl)isoindoline-1,3-dione], the “Degradation activity* (highest amount of degradation observed at any dosage; tau protein remaining)” value is on record as “C (>80% tau protein remaining after 72 hours of incubation with the test compound)”.

Staying with this test, now noted: SK-N-SH cells; 72 hours of incubation; tested at 1000 nM, 300 nM and 100 nM.
As to `Cc1ncsc1-c1ccc(CNC(=O)[C@@H]2C[C@@H](O)CN2C(=O)[C@@H](NC(=O)COCCOCCOCCOCCN2CCN(c3ccn4c(n3)nc3ccccc34)CC2)C(C)(C)C)cc1` [Compound 23, (2S,4R)-1-((5)-17-(4-(benzo[4,5]imidazo[1,2-a]pyrimidin-2-yl)piperazin-1-yl)-2-(tert-butyl)-4-oxo-6,9,12,15-tetraoxa-3-azaheptadecanoyl)-4-hydroxy-N-(4-(4-methylthiazol-5-yl)benzyl)pyrrolidine-2-carboxamide], the “Activity* (highest amount of degradation observed at any dosage, as tau protein remaining)” value was “C (>80% tau protein remaining after 72 hours of incubation with the test compound)”.
Same read-out and setting: as for `O=C1CCC(N2C(=O)c3cccc(NCCOCCOCCOCC(=O)N4CCN(c5ccn6c(n5)nc5ccccc56)CC4)c3C2=O)C(=O)N1` (stereo not shown) [Compound 41, 4-((2-(2-(2-(2-(4-(benzo[4,5]imidazo[1,2-a]pyrimidin-2-yl)piperazin-1-yl)-2-oxoethoxy)ethoxy)ethoxy)ethyl)amino)-2-(2,6-dioxopiperidin-3-yl)isoindoline-1,3-dione], the entry is “C (>80% tau protein remaining after 72 hours of incubation with the test compound)”; as for `Cc1ncsc1-c1ccc([C@H](C)NC(=O)[C@@H]2C[C@@H](O)CN2C(=O)[C@@H](NC(=O)COCCCCOc2ccc3nc(-c4ccc(N(C)C)cc4)ccc3c2)C(C)(C)C)cc1` [Compound 34, (2S,4R)-1-((S)-2-(2-(4-(2-(4-(dimethylamino)phenyl)quinolin-6-yloxy)butoxy)acetamido)-3,3-dimethylbutanoyl)-4-hydroxy-N—((S)-1-(4-(4-methylthiazol-5-yl)phenyl)ethyl)pyrrolidine-2-carboxamide], “C (>80% tau protein remaining after 72 hours of incubation with the test compound)”; as for `Cc1ncoc1-c1ccc([C@H](C)NC(=O)[C@@H]2C[C@@H](O)CN2C(=O)[C@@H](NC(=O)COCCOCCOCCN2CCN(c3ccn4c(n3)nc3ccccc34)CC2)C(C)(C)C)cc1` [Compound 19, (2S,4R)-1-((S)-14-(4-(benzo[4,5]imidazo[1,2-a]pyrimidin-2-yl)piperazin-1-yl)-2-(tert-butyl)-4-oxo-6,9,12-trioxa-3-azatetradecanoyl)-4-hydroxy-N—((S)-1-(4-(4-methyloxazol-5-yl)phenyl)ethyl)pyrrolidine-2-carboxamide], “C (>80% tau protein remaining after 72 hours of incubation with the test compound)”.
In the case of `O=C1CCC(N2Cc3c(OCCOCCOCCOCCOCCOc4ccc(-c5ccc6c(c5)[nH]c5ccncc56)cn4)cccc3C2=O)C(=O)N1` (stereo not shown) [Compound 50, 3-(4-(14-(5-(5H-pyrido[4,3-b]indol-7-yl)pyridin-2-yloxy)-3,6,9,12-tetraoxatetradecyloxy)-1-oxoisoindolin-2-yl)piperidine-2,6-dione], the “Activity* (highest amount of degradation observed at any dosage, as tau protein remaining)” value is listed as “A (≤50% tau protein remaining after 72 hours of incubation with the test compound)”.
`Cc1ncsc1-c1ccc(CNC(=O)[C@@H]2C[C@@H](O)CN2C(=O)[C@@H](NC(=O)COCCOCCOCCOc2ccc(-c3ccc4c(c3)[nH]c3ccncc34)cn2)C(C)(C)C)cc1` [Compound 1, (2S,4R)-1-((S)-14-(5-(5H-pyrido[4,3-b]indol-7-yl)pyridin-2-yloxy)-2-tert-butyl-4-oxo-6,9,12-trioxa-3-azatetradecane)-4-hydroxy-N-(4-(4-methylthiazol-5-yl)benzyl)pyrrolidine-2-carboxamide]: the “Activity* (highest amount of degradation observed at any dosage, as tau protein remaining)” value was “C (>80% tau protein remaining after 72 hours of incubation with the test compound)”.
